Source: patent US20250304567A1, “PYRROLIDIONE DERIVATIVES AS INHIBITORS OF NF KAPPA B INDUCING KINASE” (priority 2022, published 2025)

Legend:
[1] = target: Recombinant Human NF-kappaB-Inducing Kinase (NIK/MAP3K14) (Homo sapiens, UniProt Q99558); test: Inhibition of auto-phosphorylation of recombinant human NIK/MAP3K14 activity (AlphaScreen); type: biochemical; conditions: 5 μM ATP, 1 nM NIK, average if tested more than once
Summary of the method: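 GST-tagged NIK (1 nM) auto-phosphorylation with 5 μM ATP, 2 h at 25 °C, pH 7.5 Tris buffer, 0.7% DMSO; stopped with anti-phospho-IKK Ser176/180 antibody and read by AlphaScreen. Signal normalized to full-activity and no-enzyme/no-ATP controls; IC50 from sigmoidal fit of % inhibition vs log concentration.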

[2] = test system: p-IKKa levels in L363 (NIK translocated multiple myeloma) cells; test: Effect of compounds on p-IKKa levels in L363 (NIK translocated multiple myeloma) cells (AlphaLISA SureFire Ultra p-IKKa Ser176/180); type: cell-based, human; conditions: Homo sapiens, L-363, p-IKKa levels in L363 cells; average if tested more than once; read-out: Assay 2 IC50
Summary of the method: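 L363 multiple myeloma cells, BAFF-stimulated overnight (250 ng/ml), then 6 h at 37 °C with compound (11-point 1:3 series, 0.3% DMSO) plus BAFF and 10 μM MG132. p-IKKa Ser176/180 read by AlphaLISA SureFire Ultra; IC50 from sigmoidal fit normalised to stimulated and unstimulated controls.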

Chain of Recombinant Human NF-kappaB-Inducing Kinase (NIK/MAP3K14) (Q99558 whole entry): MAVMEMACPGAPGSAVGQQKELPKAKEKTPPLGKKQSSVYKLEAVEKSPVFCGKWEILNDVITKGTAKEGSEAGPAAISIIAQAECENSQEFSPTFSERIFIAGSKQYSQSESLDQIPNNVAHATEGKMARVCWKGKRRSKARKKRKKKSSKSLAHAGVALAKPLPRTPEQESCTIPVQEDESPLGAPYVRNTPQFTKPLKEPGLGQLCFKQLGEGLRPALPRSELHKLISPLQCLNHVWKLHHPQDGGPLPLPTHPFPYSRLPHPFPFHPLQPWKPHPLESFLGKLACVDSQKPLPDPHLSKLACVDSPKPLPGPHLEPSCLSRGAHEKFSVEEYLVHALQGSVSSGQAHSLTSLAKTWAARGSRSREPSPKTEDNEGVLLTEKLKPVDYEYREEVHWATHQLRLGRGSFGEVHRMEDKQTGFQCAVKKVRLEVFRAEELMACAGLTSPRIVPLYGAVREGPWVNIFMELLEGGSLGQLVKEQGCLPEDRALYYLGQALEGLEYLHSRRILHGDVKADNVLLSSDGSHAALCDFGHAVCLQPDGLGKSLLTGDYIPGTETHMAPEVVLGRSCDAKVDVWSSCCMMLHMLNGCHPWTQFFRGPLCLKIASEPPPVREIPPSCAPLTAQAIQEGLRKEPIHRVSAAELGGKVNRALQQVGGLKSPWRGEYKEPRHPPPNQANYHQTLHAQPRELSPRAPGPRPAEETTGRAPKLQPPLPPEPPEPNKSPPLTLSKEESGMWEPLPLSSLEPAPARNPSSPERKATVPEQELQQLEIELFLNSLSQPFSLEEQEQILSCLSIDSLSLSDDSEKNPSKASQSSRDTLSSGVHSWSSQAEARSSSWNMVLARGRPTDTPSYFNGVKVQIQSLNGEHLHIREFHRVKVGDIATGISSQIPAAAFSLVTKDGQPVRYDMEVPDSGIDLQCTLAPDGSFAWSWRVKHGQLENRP

Row | Compound | IC50 [1] [nM] | IC50 [2] [nM]
1 | CN1CC[C@@](O)(c2cccc(-c3nc(-c4ccnc(Nc5cnn(CC(F)F)c5)n4)cs3)c2)C1=O [Example 141, (R)-3-(3-(4-(2-((1-(2,2-difluoroethyl)-1H-pyrazol-4-yl)amino)pyrimidin-4-yl)thiazol-2-yl)phenyl)-3-hydroxy-1-methylpyrrolidin-2-one] | < 100 | < 100
2 | Cc1nccc(Nc2nccc(-c3csc(-c4cccc([C@]5(O)CCN(C)C5=O)c4)n3)n2)n1 [Example 159, (R)-3-Hydroxy-1-methyl-3-(3-(4-(2-((2-methylpyrimidin-4-yl)amino)pyrimidin-4-yl)thiazol-2-yl)phenyl)pyrrolidin-2-one] | < 100 | > 501
3 | CN1CC[C@@](O)(c2cccc(-c3nc(-c4ccnc(Nc5ccnn5C5COC5)n4)cs3)c2)C1=O [Example 160, (R)-3-Hydroxy-1-methyl-3-(3-(4-(2-((1-(oxetan-3-yl)-1H-pyrazol-5-yl)amino)pyrimidin-4-yl)thiazol-2-yl)phenyl)pyrrolidin-2-one] | < 100 | > 501
4 | COc1cccnc1Nc1nccc(-c2csc(-c3cccc([C@]4(O)CCN(C)C4=O)c3)n2)n1 [Example 161, (R)-3-Hydroxy-3-(3-(4-(2-((3-methoxypyridin-2-yl)amino)pyrimidin-4-yl)thiazol-2-yl)phenyl)-1-methylpyrrolidin-2-one] | > 501 | > 501
5 | COc1ccnc(Nc2nccc(-c3csc(-c4cccc([C@]5(O)CCN(C)C5=O)c4)n3)n2)c1 [Example 162, (R)-3-Hydroxy-3-(3-(4-(2-((4-methoxypyridin-2-yl)amino)pyrimidin-4-yl)thiazol-2-yl)phenyl)-1-methylpyrrolidin-2-one] | < 100 | > 501
6 | CN1CC[C@@](O)(c2cccc(-c3nc(-c4ccnc(Nc5ncccc5F)n4)cs3)c2)C1=O [Example 163, (R)-3-(3-(4-(2-((3-Fluoropyridin-2-yl)amino)pyrimidin-4-yl)thiazol-2-yl)phenyl)-3-hydroxy-1-methylpyrrolidin-2-one] | 100 to 500 | > 501
7 | CN1CC[C@@](O)(c2cccc(-c3nc(-c4ccnc(Nc5cc(C6CC6)nn5C)n4)cs3)c2)C1=O [Example 164, (R)-3-(3-(4-(2-((3-Cyclopropyl-1-methyl-1H-pyrazol-5-yl)amino)pyrimidin-4-yl)thiazol-2-yl)phenyl)-3-hydroxy-1-methylpyrrolidin-2-one] | < 100 | 100 to 500
8 | CN1CC[C@@](O)(c2cccc(-c3nc(-c4ccnc(Nc5nccc(C(F)(F)F)n5)n4)cs3)c2)C1=O [Example 165, (R)-3-Hydroxy-1-methyl-3-(3-(4-(2-((4-(trifluoromethyl)pyrimidin-2-yl)amino)pyrimidin-4-yl)thiazol-2-yl)phenyl)pyrrolidin-2-one] | 100 to 500 | > 501
9 | CN1CC[C@@](O)(c2cccc(-c3nc(-c4ccnc(Nc5cccnc5C(F)(F)F)n4)cs3)c2)C1=O [Example 166, (R)-3-Hydroxy-1-methyl-3-(3-(4-(2-((2-(trifluoromethyl)pyridin-3-yl)amino)pyrimidin-4-yl)thiazol-2-yl)phenyl)pyrrolidin-2-one] | < 100 | > 501
10 | CN1CC[C@@](O)(c2cccc(-c3nc(-c4ccnc(Nc5cccc(OC(F)(F)F)n5)n4)cs3)c2)C1=O [Example 167, (R)-3-Hydroxy-1-methyl-3-(3-(4-(2-((6-(trifluoromethoxy)pyridin-2-yl)amino)pyrimidin-4-yl)thiazol-2-yl)phenyl)pyrrolidin-2-one] | < 100 | > 501
11 | CN1CC[C@@](O)(c2cccc(-c3nc(-c4ccnc(Nc5cccc(OC(F)F)n5)n4)cs3)c2)C1=O [Example 168, (R)-3-(3-(4-(2-((6-(Difluoromethoxy)pyridin-2-yl)amino)pyrimidin-4-yl)thiazol-2-yl)phenyl)-3-hydroxy-1-methylpyrrolidin-2-one] | < 100 | > 501
